Measured values: BindingDB's records for doi:10.1021/jm00016a009 (Purdue University, 1995)

test: Effective concentration as Adenylate cyclase activity was measured in rat homogenate

Row | SMILES | EC50
1 | CCc1ccc2c(c1)[C@@H]1c3cc(O)c(O)cc3CC[C@H]1NC2 [(6aR,12bS)-2-Ethyl-5,6,6a,7,8,12b-hexahydro-benzo[a]phenanthridine-10,11-diol] | 610 nM
2 | Oc1cc2c(cc1O)[C@H]1c3cc(-c4ccccc4)ccc3CN[C@@H]1CC2 [(6aR,12bS)-2-Phenyl-5,6,6a,7,8,12b-hexahydro-benzo[a]phenanthridine-10,11-diol] | 10 nM
3 | Cc1ccc2c(c1)CN[C@@H]1CCc3cc(O)c(O)cc3[C@@H]21 [(6aR,12bS)-3-Methyl-5,6,6a,7,8,12b-hexahydro-benzo[a]phenanthridine-10,11-diol] | 134 nM
4 | CCCN1Cc2cc(C)ccc2[C@@H]2c3cc(O)c(O)cc3CC[C@H]21 [(6aR,12bS)-3-Methyl-6-propyl-5,6,6a,7,8,12b-hexahydro-benzo[a]phenanthridine-10,11-diol] | 10 nM
5 | Cc1cccc2c1CN[C@@H]1CCc3cc(O)c(O)cc3[C@@H]21 [(6aR,12bS)-4-Methyl-5,6,6a,7,8,12b-hexahydro-benzo[a]phenanthridine-10,11-diol] | 151 nM
6 | Oc1ccc2c(c1)[C@@H]1c3cc(O)c(O)cc3CC[C@H]1NC2 [(6aR,12bS)-5,6,6a,7,8,12b-Hexahydro-benzo[a]phenanthridine-2,10,11-triol] | 148 nM
7 | Oc1ccc2c(c1)CN[C@@H]1CCc3cc(O)c(O)cc3[C@@H]21 [(6aR,12bS)-5,6,6a,7,8,12b-Hexahydro-benzo[a]phenanthridine-3,10,11-triol] | 130 nM
